Here are results for one compound from US20240417428A1, “POLYPEPTIDE FOR INHIBITING TRPM8 AND USE THEREOF” (ZHEJIANG UNIVERSITY, priority 2021, published 2024).

Where a SMILES comes first, the peptide text is derived from it.

The test system of series [1] is oxaliplatin-induced mechanical allodynia. Kind of series: Oxaliplatin-induced mechanical allodynia, von Frey test. Type of series: in vivo, mice. To be noted: 3.5 μg/20 μl i.pl., day 10 after oxaliplatin, compared to saline. On the procedure: Adult male CD1 mice (6-8 weeks old) were used as experimental animals for behavioral experiments and primary cultures of DRG neurons. Mice were raised in the condition of 12 h light/12 h dark of light cycle with adequate standard chow and water. All animal protocols were approved by the Institutional Animal Care and Use Committee (IACUC) of Zhejiang University.
All of mice were habituated to the behavioral testing environment for 1-to-2 hours in 2-to-3 days before the behavioral testing. Single intraperitoneal (i.p.) injection of oxaliplatin (6 mg/kg body weight) was given to generate chemotherapy-induced neuropathic pain. Neuropathic pain behaviors were tested about 10 days after oxaliplatin injection.
Mechanical allodynia was assessed by measuring paw withdrawal thresholds in von Frey test. The paw withdrawal thresholds of mice in the von Frey test were tested according to Dixon'sup-down method. […] The vonFrey hairs with different stiffness were selected in turn to simulate, with 5 s interval per two simulations, and total six simulations were completed, the paw withdrawal thresholds (PWT) of mice were assessed according to the responding amount table The von Frey test was respectively performed on day 10 pre- or post-treatment with Oxaliplatin, saline or 3.5 μg/20 μL DeC-1.2 was intraplantarly injected to assess its analgesic effect on oxaliplatin-induced allodynia.

Series [2] is described as follows: Mice body temperature measurement. Format: in vivo. To be noted: 30 μg/g body weight i.v., up to 24 h. On the procedure:
A digital thermometer (FT3400) was used for body temperature measurement of mice. Adult CD1 male mice were placed into an environmental room maintained at a constant temperature of 22±1° C. Mice were injected with DeC-1.2 (30 mg/kg body weight) via the tail vein to assess the effect of DeC-1.2 on body temperature. Body temperature was measured before treatment (baseline, BL) and at 5 min, 15 min, 0.5, 1, 2, 6 and 24 hours following DeC-1.2 (30 mg/kg, i.v.) administration. The test probe of the thermometer was inserted into the anus of the mouse approximately 2 cm, and the body temperature was recorded after the temperature display value was stable.

Series [3] has as its system CCI-induced cold allodynia. Kind of series: Chronic constriction injury (CCI) model of neuropathic pain: cold allodynia. To be noted: CCI rats. Type of series: in vivo. The text has this:
Male Sprague-Dawley rats (purchased from Shanghai SLAC Laboratory Animal Co., Ltd. at the beginning of the experiment for 7 weeks, n=7-10/treatment) were used. CCI status was formed according to the method of Bennett G J and Xie Y K (Pain 1988, 33:87-107). Rats were anesthetized by intraperitoneal injection of sodium pentobarbital. The left common sciatic nerve was made to be exposed in the middle of the thigh in a state deprived of adherent tissue, and 4-0 silk thread (Ethicon Inc.) was utilized around it and four passes were loosely ligated at approximately 1-mm intervals. Sham surgery was performed in the same manner except for sciatic nerve ligation. After 1-2 weeks after CCI surgery, as documented in Tanimoto-Mori Setal. (BehavPharmacol., 19:85-90, 2008), The cold allodynia was evaluated by using a cooling plate (LHP-1700CP, TECA) with a temperature controller (Mode 13300-0, CAL Controls Inc.). The animals were acclimatized to a device consisting of a transparent acrylic box (10×12×12 cm) on a stainless steel plate (15×33 cm). The surface of the cooling plate was maintained at 10° C., and the temperature of the plate was continuously monitored with an accuracy of 0.1° C. To perform the experiment, rats were loaded on the cooling plate and the polypeptide DeC-1.2 was administered before and after a cutoff value of 120 seconds, and the paw withdrawal latency (PWL) was measured. […]

The next series addresses TRPM8 (Mus musculus, UniProt Q8R4D5). As to the kind of experiment: Calcium imaging of primary cultured DRG neurons from oxaliplatin-treated mice. Format: cell-based. Details: endogenous in cells; host or cells: primary cultured dorsal root ganglion neurons from saline- or oxaliplatin-treated mice. The note with it: 10 μM DeC-1.2, DRG neurons of oxaliplatin treated mice. The method, then: Mice was deeply anaesthetized, decapitated and blood was removed, DRG tissue was dissected off quickly and placed in ice-cold PBS solution. After washing the blood, digestive enzyme (Collagenase A 20 mg/100 ml, Dispase II 300 mg/100 ml dissolved in PBS) was added and DRG was digested at 37° C. for 1 hour. The samples were centrifuged at 500 g for 5 min and the digested tissue was collected. When the enzyme solution was removed, an appropriate amount of DMEM medium (containing 10% FBS, 1× Pen/Strep) was added, and the single cell suspension was prepared by mechanical trituration. The samples were centrifuged at 500 g for 10 min. […]
The primary-cultured DRG neurons were washed with a extracellular solution (ECS, 140 mM NaCl, 5 mM KCl, 1 mM MgCl2, 1.8 mM CaCl2), 10 mM Glucose, 15 mM HEPES, pH=7.4) then incubated in calcium dye incubation solution (2 μM […], 0.05% Pluronic F-127 in ECS) for 30 min. The cell images were continuously and alternately excited by a high-speed continuous monochromatic light source under the excitation wavelength of 340 nm and 380 nm, and recorded in full vision under 20× object lens by Visiview software Intracellular fluorescence intensity changes were continuously recorded at 0.5 fps via a high-speed scanning camera Flash4.0LT. The ratio of fluorescence signal at 340 nm/380 nm represents the intensity of calcium signal. […]

Sequence of TRPM8 (Q8R4D5 whole entry): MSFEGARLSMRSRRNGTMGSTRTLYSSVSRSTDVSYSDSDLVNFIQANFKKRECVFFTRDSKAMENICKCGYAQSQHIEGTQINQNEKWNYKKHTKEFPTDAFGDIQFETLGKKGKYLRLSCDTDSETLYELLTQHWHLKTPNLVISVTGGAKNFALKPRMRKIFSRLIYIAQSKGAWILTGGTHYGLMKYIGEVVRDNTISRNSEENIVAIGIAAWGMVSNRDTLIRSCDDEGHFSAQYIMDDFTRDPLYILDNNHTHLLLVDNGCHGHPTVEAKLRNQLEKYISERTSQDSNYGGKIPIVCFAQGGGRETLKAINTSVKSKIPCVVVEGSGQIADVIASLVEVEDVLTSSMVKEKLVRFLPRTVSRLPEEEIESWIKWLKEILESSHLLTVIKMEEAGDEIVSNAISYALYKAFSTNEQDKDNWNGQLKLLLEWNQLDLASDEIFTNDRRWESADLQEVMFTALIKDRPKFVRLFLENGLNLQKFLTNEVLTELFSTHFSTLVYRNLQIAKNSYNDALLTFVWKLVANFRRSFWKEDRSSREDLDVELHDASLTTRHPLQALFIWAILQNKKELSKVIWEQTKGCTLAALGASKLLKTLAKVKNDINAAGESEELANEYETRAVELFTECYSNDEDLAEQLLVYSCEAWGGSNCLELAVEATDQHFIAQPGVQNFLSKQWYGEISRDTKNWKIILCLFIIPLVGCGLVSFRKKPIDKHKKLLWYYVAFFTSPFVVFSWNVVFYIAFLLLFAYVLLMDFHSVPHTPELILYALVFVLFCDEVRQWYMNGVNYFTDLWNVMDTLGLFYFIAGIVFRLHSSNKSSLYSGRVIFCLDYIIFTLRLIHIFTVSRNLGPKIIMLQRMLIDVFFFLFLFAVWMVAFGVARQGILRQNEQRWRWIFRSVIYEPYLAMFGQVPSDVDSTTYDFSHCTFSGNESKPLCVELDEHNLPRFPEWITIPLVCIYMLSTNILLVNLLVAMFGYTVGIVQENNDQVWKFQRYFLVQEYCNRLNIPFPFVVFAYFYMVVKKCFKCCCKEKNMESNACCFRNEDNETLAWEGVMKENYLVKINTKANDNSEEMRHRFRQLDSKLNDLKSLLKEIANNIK

On to `C[C@@H]1NC(=O)[C@H](CCCNC(=N)N)NC(=O)[C@H](CC(=O)O)NC(=O)[C@H](CCCNC(=N)N)NC(=O)[C@H](CCCNC(=N)N)NC(=O)[C@@H](N)CSSC[C@@H](C(=O)O)NC(=O)[C@H](CCCNC(=N)N)NC(=O)[C@H](CCC(N)=O)NC(=O)[C@H](CCCNC(=N)N)NC(=O)[C@H](Cc2ccc(O)cc2)NC(=O)[C@H](Cc2c[nH]cn2)NC(=O)[C@H](CCCNC(=N)N)NC1=O` [DeC-1.2, CRRDRARHYRQRC] (HELM PEPTIDE1{C.R.R.D.R.A.R.H.Y.R.Q.R.C}$PEPTIDE1,PEPTIDE1,1:R3-13:R3$$$V2.0; N-terminus and C-terminus assumed), for which the “paw withdrawal threshold in von Frey test” value in series [1] was “did not change paw withdrawal threshold”. For the same compound, in series [2], the “effect on body temperature” value is on record as “did not significantly alter body temperature”. The “activity against cold allodynia (paw withdrawal latency, 10° C. cooling plate)” value in series [3] is on record as “exhibited strong activity”. Besides, at TRPM8, the “amplitude of calcium influx induced by menthol” value is reported as “significantly inhibit” and the “percentage of positive reaction cells in response to menthol” value was “significantly inhibit”.
